Read-outs that look alike come from different tables or passages of the source.
Experiments:
[1] = Potency code of Table 2 (assay not stated)
[2] = In vitro metabolism with mouse liver microsomes; format: in vitro ADME; settings: % remaining of compound after 60 min treatment with mouse liver microsomes
Description: In vitro metabolism of NUCC-176242 and NUCC-176248 were tested using mouse liver microsomes and a mouse S9 fraction. (See FIG. 9).

[3] = test system: MYC transcriptional activity (c-Myc E-box-luciferase reporter, MycCap cells); assay: MYC E-box luciferase reporter assay; format: cell-based; settings: Mus musculus, Myc-CaP
Description: To test the compounds, we evaluated the in silico hits in a MYC E-Box luciferase reporter assay to measure the effects of these compounds (referred to as Min-1 to Min-32) on MYC transcriptional activity. […] (See FIG. 2).
MycCap cells stably expressing luciferase with CMV promoter (MycCap-luc) or c-Myc E-box-luciferase reporter (MycCap Ebox-luc) were plated at 10000 cells per well in 96 well white-wall plate. Serial dilutions of 361 were treated next day. At 4 hours of treatment, luminescence signal was determined immediately after adding 150 μg/ml of Luciferin to the well. (See FIG. 12).

CMV reporter = CMV reporter assay (control reporter beside the Ebox reporter); format: cell-based
[4] = given as numeric bound, read-out: Ebox reporter: IC50
[5] = class symbols, read-out: Ebox reporter: IC50
[6] = class symbols, read-out: Eboc reporter IC50

| Compound | IC50 (CMV reporter) [µM] | IC50 [3, 5] [µM] | other results |
| --- | --- | --- | --- |
| Oc1c(-c2cc(C(F)(F)F)[nH]n2)ccc(OCc2ccc(Cl)cc2)c1-c1ccccc1Cl [NUCC-0196363] | – | – | Potency code [1]: ++++ (<10 ++++); MLM % at 60 min [2]: 88.6% |
| CCCCCCOc1ccc(-c2cc(C(F)(F)F)nn2C)c(O)c1-c1cncc(C#N)c1 [NUCC-0201207] | – | – | Potency code [1]: +++ (10-30 +++); MLM % at 60 min [2]: 52.7% |
| COc1cccc(-c2c(-c3ccc(OCc4ccc(Cl)cc4)cc3O)n[nH]c2C(F)(F)F)c1 [NUCC-0198309] | – | – | Potency code [1]: ++++ (<10 ++++); MLM % at 60 min [2]: 74% |
| CCCCCCOc1ccc(-c2cc(C(F)(F)F)n[nH]2)c(O)c1-c1cc(C(F)(F)F)cc(C(F)(F)F)c1 [NUCC-0201196] | – | – | Potency code [1]: +++ (10-30 +++); MLM % at 60 min [2]: 66.6% |
| COc1ccc(C(=O)N(Cc2ccc(Cl)cc2)c2ccc(-c3cc(C(F)(F)F)n(C)n3)c(O)c2)cc1 [NUCC-0202718] | > 50 | – | IC50 [3, 4]: > 50 µM |
| COCCOc1ccc(-c2cc(C(F)(F)F)n(C)n2)c(O)c1-c1ccc(Cl)c(C(F)(F)F)c1 [NUCC-0202426] | > 50 | – | IC50 [3, 4]: > 50 µM |
| COc1ccc(C(=O)N(Cc2ccc(Cl)cc2)c2ccc(-c3cc(C(F)(F)F)nn3C)c(O)c2)cc1 [NUCC-0202717] | > 50 | 5 to 10 | – |
| CNC(=O)c1cc(-c2ccc(OCc3ccc(Cl)cc3)c(-c3ccc(Cl)c(C(F)(F)F)c3)c2O)nn1C [NUCC-0202529] | > 50 | 10 to 50 | – |
| Cn1nc(C(F)(F)F)cc1-c1ccc(N(Cc2ccc(Cl)cc2)C(=O)c2ccccc2F)cc1O [NUCC-0202715] | > 50 | 5 to 10 | – |
| Cn1nc(-c2ccc(N(Cc3ccc(Cl)cc3)C(=O)c3ccc4nccn4c3)cc2O)cc1C(F)(F)F [NUCC-0202725] | > 50 | 10 to 50 | – |
| Cn1nc(-c2ccc(OCc3ccc(Cl)cc3)cc2O)c(Oc2ccc(Cl)c(F)c2)c1C(F)(F)F [NUCC-0202643] | > 50 | < 5 | – |
| Cn1nc(C(F)(F)F)cc1-c1ccc(C(=O)Nc2ccc(Cl)c(C(F)(F)F)c2)cc1O [NUCC-0202984] | – | – | IC50 [3, 6]: < 5 µM; IC50 (CMV reporter; class symbols): 10 to 50 µM |
| Cn1nc(-c2ccc(N(Cc3ccc(Cl)cc3)C(=O)c3ccc(C(F)(F)F)c(Cl)c3)cc2O)cc1C(F)(F)F [NUCC-0202424] | > 50 | – | IC50 [3, 4]: > 50 µM |
| Cn1nc(C(F)(F)F)cc1-c1ccc(N(Cc2ccc(Cl)cc2)C(=O)c2ccc3nccn3c2)cc1O [NUCC-0202693] | > 50 | < 5 | – |
| Cn1nc(C(=O)O)cc1-c1ccc(OCc2ccc(Cl)cc2)c(-c2ccc(Cl)c(C(F)(F)F)c2)c1O [NUCC-0202524] | > 50 | 10 to 50 | – |
| COc1cccc(C(=O)N(Cc2ccc(Cl)cc2)c2ccc(-c3cc(C(F)(F)F)nn3C)c(O)c2)c1 [NUCC-0202698] | > 50 | 5 to 10 | – |
| Cn1nc(-c2ccc(CNc3ccc(Cl)cc3)c(-c3ccc(Cl)c(C(F)(F)F)c3)c2O)cc1C(F)(F)F [NUCC-0202417] | > 50 | – | IC50 [3, 4]: > 50 µM |
| Cc1cc(-c2ccc(OCc3ccc(Cl)cc3)c(-c3ccc(Cl)c(C(F)(F)F)c3)c2O)n(C)n1 [NUCC-0202533] | > 50 | 10 to 50 | – |
| Cn1nc(C(F)(F)F)cc1-c1ccc(OC2CCNCC2)c(-c2ccc(Cl)c(C(F)(F)F)c2)c1O [NUCC-0202431] | 39 | 10 to 50 | – |
| Cn1nc(C(F)(F)F)cc1-c1ccc(N(Cc2ccc(Cl)cc2)C(=O)c2cncc(F)c2)cc1O [NUCC-0202692] | > 50 | 5 to 10 | – |
| COCCOc1ccc(-c2cc(C(F)(F)F)nn2C)c(O)c1-c1ccc(Cl)c(C(F)(F)F)c1 [NUCC-0202425] | > 50 | 10 to 50 | – |
| CN(C)C(=O)c1cc(-c2ccc(OCc3ccc(Cl)cc3)c(-c3ccc(Cl)c(C(F)(F)F)c3)c2O)n(C)n1 [NUCC-0202527] | > 50 | 10 to 50 | – |
| Cn1nc(C(F)(F)F)cc1-c1ccc(N(Cc2ccc(Cl)cc2)C(=O)c2cncc(C(F)(F)F)c2)cc1O [NUCC-0202688] | > 50 | 5 to 10 | – |
| Cn1nc(C(F)(F)F)cc1-c1ccc(OCc2ccc(Cl)cc2)c(-c2ccc(Cl)c(C(F)(F)F)c2)c1O [NUCC-0202538] | > 50 | – | IC50 [3, 4]: > 50 µM |
| CCOC(=O)c1cc(-c2ccc(OCc3ccc(Cl)cc3)c(-c3ccc(Cl)c(C(F)(F)F)c3)c2O)[nH]n1 [NUCC-0202530] | > 50 | 10 to 50 | – |
| Cn1nc(-c2ccc(OC3CCOCC3)c(-c3ccc(Cl)c(C(F)(F)F)c3)c2O)cc1C(F)(F)F [NUCC-0202428] | > 50 | – | IC50 [3, 4]: > 50 µM |
| COc1c(C(F)(F)F)nn(C)c1-c1ccc(OCc2ccc(Cl)cc2)cc1O [NUCC-0202651] | > 50 | 5 to 10 | – |

| Compound | IC50 (CMV reporter) [µM] | IC50 [3, 5] [µM] | other results |
| --- | --- | --- | --- |
| Cn1nc(C(F)(F)F)cc1-c1ccc(NC(=O)c2ccc(Cl)c(C(F)(F)F)c2)cc1O [NUCC-0202690] | > 50 | < 5 | – |
| Cn1nc(C(F)(F)F)cc1-c1ccc(OCc2ccc(Cl)cc2)c(-c2ccc(Cl)c(C(F)(F)F)c2)c1F [NUCC-0202641] | > 50 | – | IC50 [3, 4]: > 50 µM |
| Cn1nc(C(F)(F)F)cc1-c1ccc(N(Cc2ccc(Cl)cc2)C(=O)c2ccc(Cl)cc2C(F)(F)F)cc1O [NUCC-0202709] | > 50 | 5 to 10 | – |
| Cn1nc(C(F)(F)F)cc1-c1ccc(N(Cc2ccc(Cl)cc2)C(=O)c2ccc(F)cc2)cc1O [NUCC-0202711] | > 50 | 5 to 10 | – |
| Cn1nc(-c2ccc(COc3ccc(Cl)cc3)c(-c3ccc(Cl)c(C(F)(F)F)c3)c2O)cc1C(F)(F)F [NUCC-0202421] | > 50 | – | IC50 [3, 4]: > 50 µM |
| O=C(c1ccc(C(F)(F)F)c(Cl)c1)N(Cc1ccc(Cl)cc1)c1ccc(-c2cc(C(F)(F)F)n[nH]2)c(O)c1 [NUCC-0202434] | 40 | < 5 | – |
| CNC(=O)c1cc(-c2ccc(OCc3ccc(Cl)cc3)c(-c3ccc(Cl)c(C(F)(F)F)c3)c2O)n(C)n1 [NUCC-0202635] | > 50 | 10 to 50 | – |
| Cn1nc(C(F)(F)F)cc1-c1ccc(OC2CCOCC2)c(-c2ccc(Cl)c(C(F)(F)F)c2)c1O [NUCC-0202427] | > 50 | 10 to 50 | – |
| Cn1nc(-c2ccc(OC3CCNCC3)c(-c3ccc(Cl)c(C(F)(F)F)c3)c2O)cc1C(F)(F)F [NUCC-0202432] | 28 | 10 to 50 | – |
| CC(Oc1ccc(-c2cc(C(F)(F)F)n(C)n2)c(O)c1-c1ccc(Cl)c(C(F)(F)F)c1)c1ccc(Cl)cc1 (stereo not drawn) [NUCC-0202437] | > 50 | – | IC50 [3, 4]: > 50 µM |
| Cn1nc(C(F)(F)F)cc1-c1ccc(COc2ccc(Cl)cc2)c(-c2ccc(Cl)c(C(F)(F)F)c2)c1O [NUCC-0202416] | > 50 | < 5 | – |
| COc1cccc(C(=O)N(Cc2ccc(Cl)cc2)c2ccc(-c3cc(C(F)(F)F)n(C)n3)c(O)c2)c1 [NUCC-0202695] | > 50 | – | IC50 [3, 4]: > 50 µM |
| Cn1nc(-c2ccc(N(Cc3ccc(Cl)cc3)C(=O)c3ccc(Cl)cc3)cc2O)cc1C(F)(F)F [NUCC-0202694] | > 50 | – | IC50 [3, 4]: > 50 µM |
| CN(C(=O)c1ccc(-c2cc(C(F)(F)F)n[nH]2)c(O)c1)c1ccc(Cl)c(C(F)(F)F)c1 [NUCC-0202989] | – | – | IC50 [3, 6]: 10 to 50 µM; IC50 (CMV reporter; class symbols): 10 to 50 µM |
| Cn1nc(-c2ccc(C(=O)Nc3ccc(Cl)c(C(F)(F)F)c3)cc2O)cc1C(F)(F)F [NUCC-0202985] | – | – | IC50 [3, 6]: > 50 µM; IC50 (CMV reporter; class symbols): > 50 µM |
| Cn1nc(-c2ccc(N(Cc3ccc(Cl)cc3)C(=O)c3ccccc3C(F)(F)F)cc2O)cc1C(F)(F)F [NUCC-0202719] | > 50 | – | IC50 [3, 4]: > 50 µM |
| Cn1nc(-c2ccc(N(Cc3ccc(Cl)cc3)C(=O)c3ccc(Cl)cc3C(F)(F)F)cc2O)cc1C(F)(F)F [NUCC-0202710] | > 50 | – | IC50 [3, 4]: > 50 µM |
| CNC(=O)c1cc(-c2ccc(OCc3ccc(Cl)cc3)c(-c3ccc(Cl)c(C(F)(F)F)c3)c2O)[nH]n1 [NUCC-0202522] | 43 | 10 to 50 | – |
| Cc1cc(-c2ccc(OCc3ccc(Cl)cc3)c(-c3ccc(Cl)c(C(F)(F)F)c3)c2O)nn1C [NUCC-0202534] | > 50 | – | IC50 [3, 4]: > 50 µM |
| Cn1nc(O)cc1-c1ccc(OCc2ccc(Cl)cc2)c(-c2ccc(Cl)c(C(F)(F)F)c2)c1O [NUCC-0202638] | > 50 | 10 to 50 | – |
| Oc1cc(OCc2ccc(Cl)cc2)ccc1-c1[nH]nc(C(F)(F)F)c1Oc1ccc(F)c(Cl)c1 [NUCC-0202636] | 41 | 5 to 10 | – |
| Cn1nc(C(F)(F)F)cc1-c1ccc(N(Cc2ccc(Cl)cc2)C(=O)c2ccccc2Cl)cc1O [NUCC-0202712] | > 50 | 10 to 50 | – |
| COc1ccc(-c2cc(C(F)(F)F)nn2C)c(O)c1-c1ccc(Cl)c(C(F)(F)F)c1 [NUCC-0202429] | > 50 | < 5 | – |
| Cn1nc(-c2ccc(N(Cc3ccc(Cl)cc3)C(=O)c3cncc(C(F)(F)F)c3)cc2O)cc1C(F)(F)F [NUCC-0202689] | > 50 | – | IC50 [3, 4]: > 50 µM |
| Cn1nc(C(F)(F)F)cc1-c1ccc(N(Cc2ccc(Cl)cc2)C(=O)c2ccc(C(F)(F)F)cc2)cc1O [NUCC-0202713] | > 50 | 5 to 10 | – |
| Cn1nc(-c2ccc(N(Cc3ccc(Cl)cc3)C(=O)c3cncc(C#N)c3)cc2O)cc1C(F)(F)F [NUCC-0202722] | > 50 | – | IC50 [3, 4]: > 50 µM |
| Cn1nc(C(F)(F)F)cc1-c1ccc(N(Cc2ccc(Cl)cc2)C(=O)c2ccc(Cl)cc2)cc1O [NUCC-0202703] | > 50 | < 5 | – |

— US20200392116A1, “SUBSTITUTED HETEROCYCLES AS c-MYC TARGETING AGENTS” (NORTHWESTERN UNIVERSITY, priority 2019, published 2020)
